Measured values reported in US7402603B2, “Cyclooxygenase-2 inhibitor/histone deacetylase inhibitor combination” (Novartis AG, priority 2001, dated 2008).

What was measured:
[1] = body weight change and deaths in the mouse model of adenomatous polyposis; format: in vivo; conditions: COX 125 ppm in feed ad libitum, HDAI 10 mg/kg i.v. 3x/wk for three weeks
Description: 5-methyl-2-(2′-chloro-6′-fluoro-anilino)-phenyl acetic acid (alternatively named [2-(2′-chloro-6′-fluoro-phenylamino)-5-methyl-phenyl]acetic acid; for the preparation see Example 1) (“COX”) and N-hydroxy-3-[4-[[(2-hydroxyethyl)[2-(1H-indol-3-yl)ethyl]-amino]methyl]phenyl]-2E-2-propenamide (alternatively named (E)-N-Hydroxy-3-[4-({(2-hydroxy-ethyl)-[2-(1H-indol-3-yl)-ethyl]-amino}-methyl)-phenyl]-acrylamide; for the preparation see Example 3) (“HDAI”) are tested as single agents and together as combination therapy in a mouse model of adenomatous polyposis for the prevention and treatment of intestinal polyps. HDAI is administered intravenously to the mice at 10 mg/kg in a 5% (w/v) dextrose in water solution, q.d., 3 times per week for three weeks. COX is administered as a dietary admixture at a concentration of 125 ppm. % T/C is the quotient of the mean number of polyps in the treated mice divided by the mean number of polyps in the control mice times 100. The following results of duplicate experiments are observed: […]

intestinal polyps = assay: mouse model of adenomatous polyposis, prevention and treatment of intestinal polyps; format: in vivo; conditions: COX 125 ppm in feed ad libitum, HDAI 10 mg/kg i.v. 3x/wk for three weeks
Description: 5-methyl-2-(2′-chloro-6′-fluoro-anilino)-phenyl acetic acid (alternatively named [2-(2′-chloro-6′-fluoro-phenylamino)-5-methyl-phenyl]acetic acid; for the preparation see Example 1) (“COX”) and N-hydroxy-3-[4-[[(2-hydroxyethyl)[2-(1H-indol-3-yl)ethyl]-amino]methyl]phenyl]-2E-2-propenamide (alternatively named (E)-N-Hydroxy-3-[4-({(2-hydroxy-ethyl)-[2-(1H-indol-3-yl)-ethyl]-amino}-methyl)-phenyl]-acrylamide; for the preparation see Example 3) (“HDAI”) are tested as single agents and together as combination therapy in a mouse model of adenomatous polyposis for the prevention and treatment of intestinal polyps. HDAI is administered intravenously to the mice at 10 mg/kg in a 5% (w/v) dextrose in water solution, q.d., 3 times per week for three weeks. COX is administered as a dietary admixture at a concentration of 125 ppm. % T/C is the quotient of the mean number of polyps in the treated mice divided by the mean number of polyps in the control mice times 100. The following results of duplicate experiments are observed:
Both agents alone cause a statistically significant reduction in the number of newly formed intestinal polyps. […] Statistical evaluations are performed using a one tailed Student t-test and all p values are less than 0.01.

[2] = second of duplicate experiments

SMILES: O=C(/C=C/c1ccc(CN(CCO)CCc2c[nH]c3ccccc23)cc1)NO [HDAI, N-hydroxy-3-[4-[[(2-hydroxyethyl)[2-(1H-indol-3-yl)ethyl]-amino]methyl]phenyl]-2E-2-propenamide]
- % Body Wt. Change ([1]; first of duplicate experiments): +3.5 ± 0.1%
- Dead/Total animals ([1]; first of duplicate experiments): 0/7
- % Body Wt. Change [1, 2]: +9.6 ± 0.1%
- Dead/Total animals [1, 2]: 0/7
- % T/C (mean number of polyps treated / control x 100) (intestinal polyps; first of duplicate experiments): 52%
- Mean Intestinal Polyp Count (# ± SEM) (intestinal polyps; first of duplicate experiments): 12 ± 0.57 #
- % T/C (mean number of polyps treated / control x 100) (intestinal polyps; [2]): 57%
- Mean Intestinal Polyp Count (# ± SEM) (intestinal polyps; [2]): 15 ± 0.3 #

SMILES: Cc1ccc(Nc2c(F)cccc2Cl)c(CC(=O)O)c1 [COX, 5-methyl-2-(2′-chloro-6′-fluoro-anilino)-phenyl acetic acid]
- % Body Wt. Change ([1]; first of duplicate experiments): +10 ± 0.1%
- Dead/Total animals ([1]; first of duplicate experiments): 0/7
- % Body Wt. Change [1, 2]: +8.1 ± 0.2%
- Dead/Total animals [1, 2]: 0/7
- % T/C (mean number of polyps treated / control x 100) (intestinal polyps; first of duplicate experiments): 60%
- Mean Intestinal Polyp Count (# ± SEM) (intestinal polyps; first of duplicate experiments): 14 ± 0.7 #
- % T/C (mean number of polyps treated / control x 100) (intestinal polyps; [2]): 46%
- Mean Intestinal Polyp Count (# ± SEM) (intestinal polyps; [2]): 12 ± 0.3 #
